According to US4798841A, “Tetrahydropyridine oxime cholinergic agents and method of treatment” (Warner-Lambert Company, priority 1987, dated 1989):
pIC50: −log10 of the molar value. Where two headings read alike, the source gives them in different places.

Columns and labels:
[1] = Davis et al. 1983; cited from earlier work
muscarinic binding site [2] = assay: RQNB screening assay: inhibition of radiolabeled quinuclidinyl benzilate (muscarinic antagonist) binding in rat cerebral cortex tissue; details: for % Inhib. RQNB: @ 10^-6 M; for pIC50: rat cerebral cortex, radiolabeled quinuclidinyl benzilate
muscarinic binding site [3] = assay: RCMD screening assay: inhibition of radiolabeled cis-methyldioxolane (muscarinic agonist) binding in rat cerebral cortex tissue; details: for % Inhib. RCMD: @ 10^-7 M; for pIC50: rat cerebral cortex, radiolabeled cis-methyldioxolane
Description: Similarly, in the RCMD screening assay, described more fully by T. W. Vickeroy et al., J. Pharmacol. and Exp. Ther., 229 (3): 747 (1984), rat cerebral cortex tissue was treated with radiolabeled cis-methyldioxolane, a known muscarinic binding site agonist. The percent inhibition at given concentrations or concentrations of test compounds required to inhibit 50% of the binding of this muscarinic agonist were then determined.

laboratory rats = assay: Scopolamine induced swimming test (SIS); format: in vivo, rat; details: for minimal effective dose: rat, read-out: Minimal Effective Dose for Reversal of Scopolamine-Induced Swimming Hyperactivity; for Reversal of scopolamine-induced swimming hyperactivity: result in words
Description: In the scopolamine induced swimming test (SIS), the ability of representative compounds of the present invention to reverse the hyperactive swimming behavior of laboratory rats given scopolamine was assessed. In this test, untreated rats will generally swim between 20 to 30 meters during a five minute test period. […] The effect of scopolamine is centrally mediated; the ability of a test compound to reverse the hyperactive swimming behavior induced by scopolamine is thus a measure of the central cholinergic activity of the compound.

male Swiss-Webster mice = assay: Antiwrithing (AW) test, acetic acid induced writhing; format: in vivo; details: ip; intraperitoneal dosing; mouse; acetic acid 0.6%; read-out: ED50 (dose necessary to suppress writhing by 50% relative to vehicle controls)
Description: The antiwrithing (AW) test provides preliminary assessment of compounds with potential analgesic activity. The test is performed with male Swiss-Webster mice. Compounds are administered in aqueous 0.2% methylcellulose or other appropriate vehicles in volumes of 10 ml/kg. Dosages represent active moiety.
Acetic acid (0.6%, 10 ml/kg) is injected intraperitoneally after administration of the compound. writhing movements are counted for five minutes starting seven minutes after the acetic acid injection. Data are expressed as ED50 values, where the ED50 is the dose necessary to suppress writhing by 50% relative to vehicle controls. ED50 values are calculated by nonlinear regression analysis.

[4] = tested on: patients clinically diagnosed as having presenile primary degenerative dementia; details: double blind study; Christie et al. 1981; cited from earlier work
[5] = tested on: aged humans and non-human primates with decreased cognition; details: result in words; cited from earlier work

Compound: Nc1ccncc1N [3,4-diaminopyridine]
- Age-related cognitive deficits [1]: ameliorate age-related cognitive deficits

Compound: CCN1CCC=C(C(C)=NO)C1 [Ethyl 3-Methyl, 1-(1-Ethyl-1,2,5,6-tetrahydro-3-pyridinyl)ethanone oxime]
- % Inhib. RQNB (muscarinic binding site [2]): 23%
- % Inhib. RCMD (muscarinic binding site [3]): 21%

Compound: CC(=NO)C1=CCCNC1 [Hydrogen 3-Methyl, 1-(1,2,5,6-Tetrahydro-3-pyridinyl)ethanone oxime]
- % Inhib. RQNB (muscarinic binding site [2]): 24%
- minimal effective dose (laboratory rats; sc, Subcutaneous): 3.2 mg/kg
- % Inhib. RCMD (muscarinic binding site [3]): 85%

Compound: CC(C)/C(=N\O)C1=CCCN(C)C1 [Methyl 3-(1-Methylethyl) (anti), 2-Methyl-1-(1,2,5,6-tetrahydro-1-methyl-3-pyridinyl)-1-propanone oxime]
- % Inhib. RQNB (muscarinic binding site [2]): 10%
- % Inhib. RCMD (muscarinic binding site [3]): 10%

Compound: CC(C)/C(=N/O)C1=CCCN(C)C1 [Methyl 3-(1-Methylethyl) (syn), 2-Methyl-1-(1,2,5,6-tetrahydro-1-methyl-3-pyridinyl)-1-propanone oxime]
- % Inhib. RQNB (muscarinic binding site [2]): 35%
- % Inhib. RCMD (muscarinic binding site [3]): 43%

Compound: C#CCCC(=NO)C1=CCCN(C)C1 [Methyl 3-(CH2 CH2 C CH)]
- pIC50 (muscarinic binding site [2]): 6.00
- pIC50 (muscarinic binding site [3]): 8.15

Compound: COCCCC(=NO)C1=CCCN(C)C1 [Methyl 3-(CH2 CH2 CH2 OCH3), 4-Methoxy-1-(1,2,5,6-tetrahydro-1-methyl-3-pyridinyl)-1-butanone Oxime]
- pIC50 (muscarinic binding site [2]): 5.60
- minimal effective dose (laboratory rats; sc, Subcutaneous): 32 mg/kg
- pIC50 (muscarinic binding site [3]): 7.52

Compound: C=CCCC(=NO)C1=CCCN(C)C1 [Methyl 3-(CH2 CH2 CHCH2), 1-(1,2,5,6-Tetrahydro-1-methyl-3-pyridinyl)-4-penten-1-one oxime]
- pIC50 (muscarinic binding site [2]): 6.22
- minimal effective dose (laboratory rats; sc, Subcutaneous): 32 mg/kg
- pIC50 (muscarinic binding site [3]): 7.40

Compound: CN1CCC=C(C(CCc2ccccc2)=NO)C1 [Methyl 3-(CH2 CH2Ph), 3-Phenyl-1-(1,2,5,6-tetrahydro-1-methyl-3-pyridinyl)-1-propanone oxime]
- minimal effective dose (laboratory rats; sc, Subcutaneous): 32 mg/kg

Compound: CN1CCC=C(C(COCc2ccccc2)=NO)C1 [Methyl 3-(CH2 OCH2 Ph)]
- % Inhib. RQNB (muscarinic binding site [2]): 38%
- % Inhib. RCMD (muscarinic binding site [3]): 30%

Compound: CCC(=NO)C1=CCCN(C)C1 [Methyl 3-Ethyl, 1-(1,2,5,6-Tetrahydro-1-methyl-3-pyridinyl)-1-propanone oxime]
- pIC50 (muscarinic binding site [2]): 5.70
- minimal effective dose (laboratory rats; sc, Subcutaneous): 32 mg/kg
- pIC50 (muscarinic binding site [3]): 7.30

Compound: CC(=NO)C1=CCCN(C)C1 [Methyl 3-Methyl, 1-(1,2,5,6-Tetrahydro-1-methyl-3-pyridinyl)-ethanone oxime]
- pIC50 (muscarinic binding site [2]): 5.33
- ED50 (male Swiss-Webster mice): 1.1 mg/kg
- minimal effective dose (laboratory rats; sc, Subcutaneous): 3.2 mg/kg
- pIC50 (muscarinic binding site [3]): 7.72

Compound: CN1CCC=C(C(=NO)c2ccccc2)C1 [Methyl 3-Phenyl, Phenyl(1,2,5,6-tetrahydro-1-methyl-3-pyridinyl)methanone oxime]
- % Inhib. RQNB (muscarinic binding site [2]): 51%
- % Inhib. RCMD (muscarinic binding site [3]): 39%

Compound: CN1CCC=C(C(CCc2ccccc2)=NO)C1 [Methyl 3-Phenylmethyl]
- % Inhib. RQNB (muscarinic binding site [2]): 86%
- % Inhib. RCMD (muscarinic binding site [3]): 66%

Compound: CCCCC(=NO)C1=CCCN(C)C1 [Methyl 3-n-Butyl, 1-(1,2,5,6-Tetrahydro-1-methyl-3-pyridinyl)-1-pentanone oxime]
- pIC50 (muscarinic binding site [2]): 6.52
- minimal effective dose (laboratory rats; sc, Subcutaneous): 32 mg/kg
- pIC50 (muscarinic binding site [3]): 7.70

Compound: CC(=NO)C1=CCN(C)CC1 [Methyl 4-Methyl]
- pIC50 (muscarinic binding site [2]): 5.00
- minimal effective dose (laboratory rats; sc, Subcutaneous): 3.2 mg/kg
- pIC50 (muscarinic binding site [3]): 6.31

Compound: CN1CCC=C(C=NO)C1 [Methyl Hydrogen, 1,2,5,6-Tetrahydro-1-methyl-3-pyridinecarboxaldehyde oxime]
- % Inhib. RQNB (muscarinic binding site [2]): 8%
- minimal effective dose (laboratory rats; sc, Subcutaneous): 32 mg/kg
- % Inhib. RCMD (muscarinic binding site [3]): 22%

Compound: COC(=O)C1=CCCN(C)C1 [arecoline, methyl ester of 1,2,5,6-tetra-hydro-1-methyl-3-pyridinecarboxylic acid, reference compound]
- Test of picture recognition [4]: Significant improvement
- Reversal of scopolamine-induced swimming hyperactivity (laboratory rats): can be reversed

Compound: CCCN1CCC=C(C(CCc2ccccc2)=NO)C1 [n-Propyl 3-(CH2 CH2Ph), 3-Phenyl-1-(1,2,5,6-tetrahydro-1-propyl-3-pyridinyl)-1-propanone oxime]
- minimal effective dose (laboratory rats; Oral): 3.2 mg/kg

Compound: CCCN1CCC=C(C(CCc2ccccc2)=NO)C1 [n-Propyl 3-Phenylmethyl]
- % Inhib. RQNB (muscarinic binding site [2]): 63%
- % Inhib. RCMD (muscarinic binding site [3]): 3%

Compound: CNC(=O)Oc1ccc2c(c1)[C@]1(C)CCN(C)[C@@H]1N2C [physostigmine, reference compound]
- Memory in aged humans and non-human primates with decreased cognition [5]: improved memory
- Reversal of scopolamine-induced swimming hyperactivity (laboratory rats): can be reversed

Compound: CN1[C@@H]2C[C@@H](OC(=O)[C@H](CO)c3ccccc3)C[C@H]1[C@@H]1O[C@@H]12 [scopolamine, reference compound]
- Increase of swimming distance above base-line (laboratory rats; scopolamine 0.1 mg/kg, five minute test period): 75-125%
